According to PubChem BioAssay AID624254 (Broad Institute, 2012):
Active and inactive are the calls of the source. The rule behind the calls is not given here.

Experiment: Luciferase light induction in v cholerae bh1651, agonist dose response, confirmatory (AID 624254)
Details: V. cholerae BH1651 luxOD47E, luciferase light induction, 6 h; at 50 µM (top of the series)

Row | SMILES | activation (light increase)
1 | CC(=O)c1c(N2CCC(C(N)=O)CC2)nc(=S)n(-c2ccccc2)c1C | inactive
2 | N#Cc1ccccc1NC(=O)CNc1ccccc1N1CCCCC1 | inactive
3 | CCCOC(=O)c1ccc(NC(=O)C2CCCO2)cc1 (stereo not given) | inactive
4 | COc1ccc(Cc2nnc(NC(=O)C3CC(=O)N(c4ccccc4C)C3)s2)cc1OC (stereo not given) | inactive
5 | Nc1nnc(-c2ccc(Cl)cc2Cl)s1 | inactive
6 | CCOCCCNC(=O)C(NC(=O)c1cnccn1)c1ccc(C)cc1 (stereo not given) | inactive
7 | CCCCOc1ccc(NS(=O)(=O)c2cn(C)cn2)cc1 | inactive
8 | CCCc1cc(=O)[nH]c(Nc2ccc(N3CCCCC3)cc2)n1 | inactive
9 | CCCc1cc(Nc2ccccc2OCC)n2ncnc2n1 | inactive
10 | CCC(=O)c1coc2ccc(O)cc12 | inactive
11 | COc1ccc(-n2c(COc3ccccc3)nnc2SCc2ccc(C#N)cc2)cc1 | inactive
12 | COc1ccc(-c2nc(N)ncc2Oc2ccccc2Br)c(O)c1 | inactive
13 | CN(CC(=O)Nc1ccccc1Cl)C(=O)c1cccc(-n2cccc2)c1 | inactive
14 | O=C(Nc1cccc(Cl)c1)Nc1ccc(Cl)cn1 | inactive
15 | Clc1ccc(-c2cc(COc3ccc4ccccc4c3)no2)cc1 | inactive
16 | CN(c1ccccc1)S(=O)(=O)c1nnc(NC(=O)C2CCCCC2)s1 | inactive
17 | Cc1noc(C)c1NC(=O)Nc1cccc2c1O[C@H](CN(C)S(=O)(=O)c1cccs1)[C@H](C)CN([C@@H](C)CO)C2=O | inactive
18 | O=C(O)c1cc(CN2CCOCC2)oc1-c1ccccc1 | inactive
19 | Cc1ccc(C)c(NC(=O)CN(C)C(=O)CCN2C(=O)c3ccccc3C2=O)c1 | inactive
20 | CCCNC(=O)COC(=O)/C=C/c1ccco1 | inactive
21 | CCCn1nnnc1NCc1ccc(SC)cc1 | inactive
22 | CC(C)CNC(=O)COC(=O)/C=C/c1ccco1 | inactive
23 | COC(=O)c1cc(Br)ccc1OC(=O)c1cccnc1 | inactive
24 | O=C(COC(=O)[C@H](Cc1c[nH]c2ccccc12)NC(=O)c1ccc(Cl)cc1)Nc1ccc2c(c1)OCO2 | inactive
25 | CC(C#N)On1c(SC(C)C#N)nc2ccccc2c1=O (stereo not given) | inactive

Row | SMILES | activation (light increase)
26 | Cc1ncc(S(=O)(=O)c2ccccc2)c(-c2ccc(Cl)cc2Cl)n1 | inactive
27 | O=Cc1cc(OCc2ccccc2)ccc1B(O)O | inactive
28 | CC(=O)c1ccc(NC(=O)COc2ccccc2C(=O)Nc2ccccc2)cc1 | inactive
29 | CCOc1ccc(Nc2ccc3nonc3c2[N+](=O)[O-])cc1 | inactive
30 | CCCn1nnnc1NCc1ccc(OC)cc1 | inactive
31 | CC(C)CNC(=O)c1c2c(nc3ccccc13)-c1ccccc1CC2 | inactive
32 | CC(=O)N1CCN(C(=O)c2cc(-c3ccc(Cl)s3)nc3ccccc23)CC1 | inactive
33 | COc1ccc(C(=O)N2CCC(C(=O)c3ccc(F)cc3)CC2)cc1 | inactive
34 | COC(=O)c1sc2ncccc2c1OCc1c(Cl)cccc1Cl | inactive
35 | O=S(=O)(Cc1ccc(Cl)cc1)N1CCN(Cc2ccccc2)CC1 | inactive
36 | COc1ccccc1NS(=O)(=O)c1cccc(C(=O)NCC(c2ccco2)N2CCCCC2)c1 (stereo not given) | inactive
37 | O=C(NCC(F)(F)F)Nc1ncccn1 | inactive
38 | COc1ccc(C(=O)NC2CCSC2=O)cc1 (stereo not given) | inactive
39 | CC(=O)c1ccc(S(=O)(=O)Nc2cccc(-c3ccc4nncn4n3)c2)cc1 | inactive
40 | Cc1ccc(Oc2ccc(Cl)cc2NC(=O)c2cnccn2)cc1 | inactive
41 | CCc1sc(N(C(=O)Cc2ccccc2)c2cccc(F)c2)nc1-c1ccc(C)cc1 | inactive
42 | COc1c(C)cccc1C(=O)Nc1ccc(OCC(=O)N2CCOCC2)cc1C | inactive
43 | CCc1ccc(OCCNC(=O)c2cccs2)cc1 | inactive
44 | C=CCn1c(-c2cc(OC)cc(OC)c2)n[nH]c1=S | inactive
45 | Cn1cnc(S(=O)(=O)Nc2ccccc2Cl)c1 | inactive
46 | Cc1ccc(C)c(N(C(=O)Cn2nnc(-c3cccs3)n2)C(C(=O)NC2CC2)c2ccc(C)o2)c1 (stereo not given) | inactive
47 | CC(=O)c1cccc(NC(=O)COC(=O)Cc2ccc(Cl)cc2)c1 | inactive
48 | CCOC(=O)c1c(NC(=O)c2cccs2)sc(C)c1CC | inactive
49 | FC(F)(F)c1nnc2sc(-c3cccs3)nn12 | inactive
50 | O=C(c1cccc(S(=O)(=O)N2CCc3ccccc32)c1)N1CCOCC1 | inactive
